Data as given in patent US20100267561A1, “HERBICIDAL PYRIDAZINONE DERIVATIVES” (priority 2007, published 2010).
Where two headings read alike, the source gives them in different places.

Experiments:
Type in all cases: in vivo
[1] = test system: Russian thistle (Salsola iberica); assay: Test B pre-/postemergence plant response; conditions: Preemergence
Summary of the method: (§1)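 Seeds were sown and sprayed preemergence, while plants at 2 to 18 cm (1- to 4-leaf stage) got postemergence sprays. Compounds were formulated in a non-phytotoxic solvent mixture with surfactant. After 13 to 15 days in a greenhouse, injury was rated visually against untreated controls, 0 (no effect) to 100 (complete control).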

[2] = test system: corn (Zea mays); assay: Test B pre-/postemergence plant response; conditions: for Corn plant response rating (crop injury, 0 = no effect, 100 = complete kill) at 31 g/ha: 31 g ai/ha; for Corn plant response rating (crop injury, 0 = no effect, 100 = complete kill) at 62 g/ha: 62 g ai/ha, 100 complete control
Summary of the method: as §1

[3] = test system: downy bromegrass (Bromus tectorum); assay: Test B pre-/postemergence plant response; conditions: for pest or weed control at 31 g/ha: 31 g ai/ha
Summary of the method: as §1

[4] = test system: eastern black (E.B.) nightshade (Solanum ptycanthum); assay: Test B pre-/postemergence plant response; conditions: Preemergence
Summary of the method: as §1

[5] = test system: giant foxtail (Setaria faberii); assay: Test B pre-/postemergence plant response; conditions: for pest or weed control at 31 g/ha: 31 g ai/ha; for pest or weed control at 62 g/ha: 62 g ai/ha, 100 complete control
Summary of the method: as §1

[6] = test system: green foxtail (Setaria viridis); assay: Test B pre-/postemergence plant response; conditions: for pest or weed control at 31 g/ha: 31 g ai/ha; for pest or weed control at 62 g/ha: 62 g ai/ha, 100 complete control
Summary of the method: as §1

[7] = test system: large crabgrass (Digitaria sanguinalis); assay: Test B pre-/postemergence plant response; conditions: for pest or weed control at 31 g/ha: 31 g ai/ha; for pest or weed control at 62 g/ha: 62 g ai/ha, 100 complete control
Summary of the method: as §1

[8] = test system: pigweed (Amaranthus retroflexus); assay: Test B pre-/postemergence plant response; conditions: for pest or weed control at 31 g/ha / pest or weed control at 62 g/ha: Amaranthus retroflexus, read-out: Plant response rating, Pigweed; for pest or weed control at 31 g/ha: 31 g ai/ha; for pest or weed control at 62 g/ha: 62 g ai/ha, 100 complete control
Summary of the method: as §1

[9] = test system: wild oat (Avena fatua); assay: Test B pre-/postemergence plant response; conditions: for pest or weed control at 31 g/ha / pest or weed control at 62 g/ha: Avena fatua, read-out: Plant response rating, Oat, Wild; for pest or weed control at 31 g/ha: 31 g ai/ha; for pest or weed control at 62 g/ha: 62 g ai/ha, 100 complete control
Summary of the method: as §1

[10] = test system: woolly cupgrass (Eriochloa villosa); assay: Test B pre-/postemergence plant response; conditions: for pest or weed control at 31 g/ha: 31 g ai/ha; for pest or weed control at 62 g/ha: 62 g ai/ha, 100 complete control
Summary of the method: as §1

[11] = test system: barnyardgrass (Echinochloa crus-galli); assay: Test B flooded paddy test plant response; conditions: Echinochloa crus-galli, read-out: Plant response rating, Barnyardgrass
Summary of the method: (§2)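 2-leaf plants; pots flooded 3 cm above soil; compound added to paddy water; depth maintained. Greenhouse 13–15 d. Visual rating vs controls, 0 (no effect) to 100 (complete control); dash = no result.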

[12] = test system: ducksalad (Heteranthera limosa); assay: Test B flooded paddy test plant response; conditions: Heteranthera limosa, read-out: Plant response rating, Ducksalad
Summary of the method: as §2

[13] = test system: rice (Oryza sativa); assay: Test B flooded paddy test plant response; conditions: Oryza sativa, read-out: Plant response rating, Rice
Summary of the method: as §2

[14] = test system: umbrella sedge (Cyperus difformis); assay: Test B flooded paddy test plant response; conditions: Cyperus difformis, read-out: Plant response rating, Sedge, Umbrella
Summary of the method: as §2

[15] = 8 g ai/ha, scale 0 to 100 (0 no effect, 100 complete control)
[16] = 8 g ai/ha, postemergence, 0-100 scale
[17] = Preemergence, 8 g ai/ha, scale 0 to 100 (0 no effect, 100 complete control)
[18] = Preemergence, 16 g ai/ha, scale 0 to 100
[19] = 16 g ai/ha, postemergence, 0-100 scale
[20] = post-emergence, Postemergence, scale 0 to 100
[21] = post-emergence, Postemergence, scale 0 to 100, 0 no effect
[22] = pre-emergence, Preemergence, scale 0 to 100 (0 no effect, 100 complete control)
[23] = pre-emergence, Preemergence, 0 to 100 scale, 0 no effect
[24] = Flood (flooded paddy test), 62 g ai/ha, scale 0 to 100, 0 no effect, 100 complete control
[25] = Flood (flooded paddy test), 125 g ai/ha, scale 0 to 100, 0 no effect, 100 complete control
[26] = Flood (flooded paddy test), 250 g ai/ha, scale 0 to 100, 0 no effect, 100 complete control
[27] = Flood, 31 g ai/ha, scale 0 to 100

Cc1cc(-c2ccc(Br)cc2)nn1-c1c(OC(=O)C2CC2)cnn(C(=O)C2CC2)c1=O [Compound 80, 5-[3-(4-bromophenyl)-5-methyl-1H-pyrazol-1-yl]-1-(cyclopropylcarbonyl)-1,6-dihydro-6-oxo-4-pyridazinyl cyclopropanecarboxylate]
Russian Thistle plant response rating [1, 15]: 0
Plant response rating, Russian Thistle ([1]; 31 g ai/ha, scale 0 to 100 (0 no effect, 100 complete control)): 0
Plant response rating, Russian Thistle ([1]; 62 g ai/ha, 0 to 100 scale, 0 no effect, 100 complete control): 0
Russian Thistle plant response rating ([1]; 16 g ai/ha, scale 0 to 100): 0
Corn plant response rating [2, 16]: 100
Corn plant response rating [2, 17]: 20
Corn plant response rating [2, 18]: 85
Corn plant response rating (crop injury, 0 = no effect, 100 = complete kill) at 16 g/ha ([2]; Zea mays, post-emergence, Postemergence, 16 g ai/ha, scale 0 to 100): 100%
Corn plant response rating (crop injury, 0 = no effect, 100 = complete kill) at 31 g/ha ([2]; Zea mays, post-emergence, Postemergence, scale 0 to 100): 100%
Corn plant response rating (crop injury, 0 = no effect, 100 = complete kill) at 62 g/ha ([2]; Zea mays, post-emergence, Postemergence, scale 0 to 100, 0 no effect): 100%
Corn plant response rating (crop injury, 0 = no effect, 100 = complete kill) at 31 g/ha ([2]; Zea mays, pre-emergence, Preemergence, scale 0 to 100 (0 no effect, 100 complete control)): 98%
Corn plant response rating (crop injury, 0 = no effect, 100 = complete kill) at 62 g/ha ([2]; Zea mays, pre-emergence, Preemergence, 0 to 100 scale, 0 no effect): 100%
Bromegrass, Downy plant response rating [3, 16]: 40
pest or weed control at 16 g/ha ([3]; Bromus tectorum, post-emergence, Postemergence, 16 g ai/ha, scale 0 to 100, read-out: Plant response rating, Bromegrass, Downy): 45%
pest or weed control at 31 g/ha ([3]; Bromus tectorum, post-emergence, Postemergence, scale 0 to 100, read-out: Plant response rating, Bromegrass, Downy): 90%
pest or weed control at 31 g/ha ([3]; Bromus tectorum, pre-emergence, Preemergence, scale 0 to 100 (0 no effect, 100 complete control), read-out: Plant response rating, Bromegrass, Downy): 85%
pest or weed control at 62 g/ha ([3]; Bromus tectorum, pre-emergence, Preemergence, 62 g ai/ha, 0 to 100 scale, 0 no effect, 100 complete control, read-out: Plant response rating, Bromegrass, Downy): 85%
Bromegrass, Downy plant response rating [3, 17]: 0
Bromegrass, Downy plant response rating [3, 18]: 30
Nightshade, E. B. plant response rating [4, 15]: 0
pest or weed control at 31 g/ha ([4]; Solanum, pre-emergence, 31 g ai/ha, scale 0 to 100 (0 no effect, 100 complete control), read-out: Plant response rating, Nightshade, E. B.): 0%
pest or weed control at 62 g/ha ([4]; Solanum, pre-emergence, 62 g ai/ha, 0 to 100 scale, 0 no effect, 100 complete control, read-out: Plant response rating, Nightshade, E. B.): 0%
Foxtail, Giant plant response rating [5, 16]: 95
Foxtail, Giant plant response rating [5, 17]: 0
Foxtail, Giant plant response rating [5, 18]: 100
pest or weed control at 16 g/ha ([5]; Setaria faberi, post-emergence, Postemergence, 16 g ai/ha, scale 0 to 100, read-out: Plant response rating, Foxtail, Giant): 100%
pest or weed control at 31 g/ha ([5]; Setaria faberi, post-emergence, Postemergence, scale 0 to 100, read-out: Plant response rating, Foxtail, Giant): 100%
pest or weed control at 62 g/ha ([5]; Setaria faberi, post-emergence, Postemergence, scale 0 to 100, 0 no effect, read-out: Plant response rating, Foxtail, Giant): 100%
pest or weed control at 31 g/ha ([5]; Setaria faberi, pre-emergence, Preemergence, scale 0 to 100 (0 no effect, 100 complete control), read-out: Plant response rating, Foxtail, Giant): 100%
pest or weed control at 62 g/ha ([5]; Setaria faberi, pre-emergence, Preemergence, 0 to 100 scale, 0 no effect, read-out: Plant response rating, Foxtail, Giant): 100%
Foxtail, Green plant response rating [6, 16]: 50
Foxtail, Green plant response rating [6, 17]: 0
Foxtail, Green plant response rating [6, 18]: 98
pest or weed control at 16 g/ha ([6]; Setaria viridis, post-emergence, Postemergence, 16 g ai/ha, scale 0 to 100, read-out: Plant response rating, Foxtail, Green): 60%
pest or weed control at 31 g/ha ([6]; Setaria viridis, post-emergence, Postemergence, scale 0 to 100, read-out: Plant response rating, Foxtail, Green): 100%
pest or weed control at 62 g/ha ([6]; Setaria viridis, post-emergence, Postemergence, scale 0 to 100, 0 no effect, read-out: Plant response rating, Foxtail, Green): 100%
pest or weed control at 31 g/ha ([6]; Setaria viridis, pre-emergence, Preemergence, scale 0 to 100 (0 no effect, 100 complete control), read-out: Plant response rating, Foxtail, Green): 100%
pest or weed control at 62 g/ha ([6]; Setaria viridis, pre-emergence, Preemergence, 0 to 100 scale, 0 no effect, read-out: Plant response rating, Foxtail, Green): 100%
Crabgrass, Large plant response rating [7, 16]: 98
pest or weed control at 16 g/ha ([7]; Digitaria sanguinalis, post-emergence, Postemergence, 16 g ai/ha, scale 0 to 100, read-out: Plant response rating, Crabgrass, Large): 100%
pest or weed control at 31 g/ha ([7]; Digitaria sanguinalis, post-emergence, Postemergence, scale 0 to 100, read-out: Plant response rating, Crabgrass, Large): 100%
pest or weed control at 62 g/ha ([7]; Digitaria sanguinalis, post-emergence, Postemergence, scale 0 to 100, 0 no effect, read-out: Plant response rating, Crabgrass, Large): 100%
pest or weed control at 31 g/ha ([7]; Digitaria sanguinalis, pre-emergence, Preemergence, scale 0 to 100 (0 no effect, 100 complete control), read-out: Plant response rating, Crabgrass, Large): 100%
pest or weed control at 62 g/ha ([7]; Digitaria sanguinalis, pre-emergence, Preemergence, 0 to 100 scale, 0 no effect, read-out: Plant response rating, Crabgrass, Large): 100%
Crabgrass, Large plant response rating [7, 17]: 0
Crabgrass, Large plant response rating [7, 18]: 98
Pigweed plant response rating [8, 16]: 0
Pigweed plant response rating [8, 19]: 0
pest or weed control at 31 g/ha [8, 20]: 0%
pest or weed control at 62 g/ha [8, 21]: 0%
pest or weed control at 31 g/ha [8, 22]: 0%
pest or weed control at 62 g/ha [8, 23]: 55%
Pigweed plant response rating [8, 17]: 0
Pigweed plant response rating [8, 18]: 0
Oat, Wild plant response rating [9, 16]: 85
Oat, Wild plant response rating [9, 19]: 100
pest or weed control at 31 g/ha [9, 20]: 100%
pest or weed control at 62 g/ha [9, 21]: 100%
pest or weed control at 31 g/ha [9, 22]: 60%
pest or weed control at 62 g/ha [9, 23]: 70%
Oat, Wild plant response rating [9, 17]: 30
Oat, Wild plant response rating [9, 18]: 40
Cupgrass, Woolly plant response rating [10, 16]: 80
pest or weed control at 16 g/ha ([10]; Eriochloa villosa, post-emergence, Postemergence, 16 g ai/ha, scale 0 to 100, read-out: Plant response rating, Cupgrass, Woolly): 95%
pest or weed control at 31 g/ha ([10]; Eriochloa villosa, post-emergence, Postemergence, scale 0 to 100, read-out: Plant response rating, Cupgrass, Woolly): 100%
pest or weed control at 62 g/ha ([10]; Eriochloa villosa, post-emergence, Postemergence, scale 0 to 100, 0 no effect, read-out: Plant response rating, Cupgrass, Woolly): 100%
pest or weed control at 31 g/ha ([10]; Eriochloa villosa, pre-emergence, Preemergence, scale 0 to 100 (0 no effect, 100 complete control), read-out: Plant response rating, Cupgrass, Woolly): 98%
pest or weed control at 62 g/ha ([10]; Eriochloa villosa, pre-emergence, Preemergence, 0 to 100 scale, 0 no effect, read-out: Plant response rating, Cupgrass, Woolly): 100%
Cupgrass, Woolly plant response rating [10, 17]: 0
Cupgrass, Woolly plant response rating [10, 18]: 65
pest or weed control at 62 g/ha [11, 24]: 0%
pest or weed control at 125 g/ha [11, 25]: 0%
pest or weed control at 250 g/ha [11, 26]: 0%
pest or weed control at 31 g/ha [11, 27]: 0%
pest or weed control at 62 g/ha [12, 24]: 0%
pest or weed control at 125 g/ha [12, 25]: 0%
pest or weed control at 250 g/ha [12, 26]: 0%
pest or weed control at 31 g/ha [12, 27]: 0%
plant injury at 62 g/ha [13, 24]: 0%
plant injury at 125 g/ha [13, 25]: 0%
plant injury at 250 g/ha [13, 26]: 0%
plant injury at 31 g/ha [13, 27]: 0%
pest or weed control at 62 g/ha [14, 24]: 0%
pest or weed control at 125 g/ha [14, 25]: 0%
pest or weed control at 250 g/ha [14, 26]: 0%
pest or weed control at 31 g/ha [14, 27]: 0%
